The values that follow come from patent US8772502B2, “Alkylsulfinyl-substituted thiazolide compounds” (Romark Laboratories, L.C., priority 2010, dated 2014).

The subject of series [1] is HCV replicon cell line, AVA5 (sub-genomic CON1, genotype 1b). As to the kind of experiment: Primary HCV replicon assay, antiviral activity (intracellular HCV RNA). The format is cell-based. As for the experimental part:
(§1) Antiviral activity of test compounds was assessed in a 3-day assay using the stably-expressing HCV replicon cell line, AVA5 (sub-genomic CON1, genotype 1b) [Korba, B. E. et al. Antiviral Res. 77, 56-63 (2008); Blight et al., Science 290, 1972-1974 (2000)] maintained as sub-confluent cultures on 96-well plates as previously described [Okuse et al., Antiviral Research 65, 23-34 (2005)]. Antiviral activity was determined by blot hybridization analysis of intracellular HCV RNA (normalized to the level of cellular B-actin RNA in each culture sample) and cytotoxicity was assessed by neutral red dye uptake after 3 days of treatment. Additional studies were performed using Huh7 cells containing another HCV replicon, H/FL-Neo, a genotype 1a full length construct [Blight et al., J. Virol. 77, 3181-3190 (2003)]. For studies involving human serum, standard culture medium (which contains 10% fetal bovine serum) and assay conditions were maintained.
(§2) EC50, EC90 and CC50 values (±standard deviations [S.D.]) were calculated by linear regression analysis using data combined from all treated cultures (Korba, B. E. et al. Antiviral Res. 77, 56-63 (2008)). […] Selectivity index (S.I.) was calculated as CC50/EC90 for HBV assays and CC50/EC50 for HCV assays.
A general note: A replicon is a self-replicating genome or part of one, used to study replication in cells.

A short description of series [2]: Primary HCV replicon assay, cytotoxicity (neutral red dye uptake). Particulars: human. As for the experimental part:
as §1, §2

The subject of series [3] is Huh7 cells containing HCV replicon H/FL-Neo. As to the kind of experiment: Secondary HCV replicon assay, genotype 1A, cytotoxicity (neutral red dye uptake). Particulars: secondary assay, genotype 1A; neutral red dye uptake. How it is done:
as §1, §2

Series [4] concerns HCV replicon cell line, AVA5. As to the kind of experiment: Primary HCV replicon assay, cytotoxicity (neutral red dye uptake). Particulars: primary assay; neutral red dye uptake after 3 days. As for the experimental part: as §1, §2
Series [5] deals with HCV replicon cell line, AVA5 (sub-genomic CON1, genotype 1b). The series can be described thus: Secondary HCV replicon assay, genotype 1B, antiviral activity. The format is cell-based. How it is done:
as §1, §2

Series [6] relates to HCV replicon cell line, AVA5. The series can be described thus: Secondary HCV replicon assay, genotype 1B, cytotoxicity (neutral red dye uptake). Particulars: secondary assay, genotype 1B; neutral red dye uptake. As for the experimental part:
as §1, §2

Series [7] concerns HCV replicon, H/FL-Neo, a genotype 1a full length construct. As to the kind of experiment: Secondary HCV replicon assay, genotype 1A, antiviral activity. The format is cell-based. As for the experimental part:
as §1, §2

Series [8] in a line: Secondary HCV replicon assay, genotype 1A, cytotoxicity (neutral red dye uptake). Particulars: human. How it is done: as §1, §2
A further series relates to Huh 7.5 cells. As to the kind of experiment: Cytotoxicity in the infectious genotype 2a cell culture assay. The series is classed as cell-based. As for the experimental part: (§3) Genotype 2a antiviral assays were conducted as previously described [Lindenbach, B. D.; Rice, C. M. et al. Science, 309, 623-626 (2005)]. […] Cell viability was determined using the Calcein assay kit (Biotium, Inc. Hayward, Calif., USA). The alternate method for measuring cell cytotoxicity was via the Guava Technologies ViaCount assay (Millipore) The ViaCount Assay provides rapid and reliable determinations of viability and total cell count. It distinguishes viable and non-viable cells based on differential permeabilities of two DNA-binding dyes in the Guava ViaCount® Reagent. The nuclear dye stains only nucleated cells, while the viability dye brightly stains dying cells. This combination of dyes enables the Guava ViaCount Assay to distinguish viable, apoptotic, and dead cells. Debris is excluded from results based on negative staining with the nuclear dye.

Series [9] is described as follows: Secondary HCV replicon assay, genotype 1B, cytotoxicity (neutral red dye uptake). Particulars: human. As for the experimental part: as §1, §2
For another series, the system named is J6/JFH-1 HCV. The series can be described thus: Infectious genotype 2a cell culture assay (HCV replication by RT-PCR). Particulars: for efficacy with regards to HCV replication: Huh7.5/JFH-1 HCV cell culture system; for inhibition of J6/JFH-1 HCV replication: 1 μM test concentration. The format is cell-based. How it is done:
as §3
HCV replication levels were determined by RT-PCR on RNA from cell culture supernatants. J6-infected Huh 7.5 cells were seeded in 12-well plates at a density of 2.0E^5 cells/well in 1.5 mL of DMEM supplemented with 10% FBS and 1% Pen/Strep. […] A positive control of IFN-α at concentrations of 10 IU/mL and 50 IU/mL, negative control wells containing mock incubations of DMEM with 1 uL and 10 uL (the same volume of the molecular compounds at 1 uM and 10 uM, respectively) of DMSO was included to rule out nonspecific effects of DMSO on the cells, and J6-infected with only DMEM were used as negative controls. A final control group consisted of un-infected Huh 7.5 cells, plated at the same time and density as the J6-infected cells on a separate plate. 48 hours and 120 hours after incubation with thiazolides, the media was collected and frozen, cells were washed 2× with PBS, and lysed in 500 uL of lysis buffer per well. Following lysis, RNA was extracted from the cells using the RNAqueous-4PCR Kit from Ambion, and the RNA concentration determined using the NanoDrop® machine. Reverse-transcription reactions produced 1.5 μg of cDNA per sample, which was then used for rt-PCR to quantify the HCV viral load in each sample. Analysis of the rt-PCR results generated the fold increases and decreases of the HCV viral load in comparison to untreated J6 cells.

The subject of a further series is cellular esterases. The series can be described thus: Metabolic stability of acetate prodrugs under the cell assay conditions. The format is in vitro ADME.
The conditions of series [10]: cited from earlier work.
The subject of a further series is cytochrome P450 enzymes. Particulars: cited from earlier work.
Where [11] appears, read: primary assay, 2-fold depression of intracellular HCV RNA, read-out: EC50.
Setting [12] is: primary assay, 10-fold depression of intracellular HCV RNA, read-out: EC90.
The mark [13] stands for this setting: Hepatitis C virus, Ava5, primary assay, 2-fold depression of intracellular HCV RNA, read-out: EC50.
Setting [14] is: Hepatitis C virus, Ava5, primary assay, 10-fold depression of intracellular HCV RNA, read-out: EC90.

“And” between values parts separate entries of the source, which are not always exact repeats. Equal entries are not always repeated. “Also recorded” adds a separate entry of the source. Where two headings read alike, the source gives them in different places. A value given as a limit tells only on which side of the number the result lay.

In series [1] (Hepatitis C virus, Ava5), `CC(=O)Oc1ccccc1C(=O)Nc1nc([S+](C)[O-])cs1` (stereo not drawn) [Compound 1, 2-(4-(methylsulfinyl)thiazol-2-ylcarbamoyl)phenyl acetate] yielded an EC50 of over 10 µM and an EC90 of over 10 µM. In series [2], this compound yielded a CC50 at 3 days of over 100 µM.

With `CS(=O)(=O)c1cnc(NC(=O)c2ccccc2O)s1` [RM4863], the CC50 in [3] was over 10 µM; in [4], 43 µM; in series [6], over 10 µM. The EC50 turned out to be 1.5 µM in series [1] (setting [11]), 0.9 µM in [5] and 0.8 µM in series [7]. Also, the EC90 in series [1] (setting [12]) was 5.2 µM; in [5], 8.8 µM; in series [7], 3.4 µM.

With `C[S+]([O-])c1csc(NC(=O)c2ccccc2O)n1` (stereo not drawn) [Compound 2, 2-hydroxy-N-(4-(methylsulfinyl)thiazol-2-yl)benzamide], the CC50 at 3 days in [8] and in series [9] was over 100 µM each time. In addition, the EC50 in [1] (setting [13]) came to 2 µM; in series [5] (Hepatitis C virus, Ava5), 2.2 µM; in series [7] (Hepatitis C virus) it was 2.8 µM. The concentration for an effect of 90% (EC90) was 4.6 µM in series [1] (setting [14]); 6.1 µM in series [5] (Hepatitis C virus, Ava5); over 5 µM in series [7] (Hepatitis C virus). Moreover, in [4], half-maximal cytotoxicity (CC50) was put at 63 µM. Further, the “cytotoxic effect in Huh 7.5 cells” value is listed as “Neither of these compounds showed a cytotoxic effect” in the series on Huh 7.5 cells and “without being cytotoxic” with Huh 7.5 cells (listed as analog 2). Moreover, the “efficacy with regards to HCV replication” value in the series with J6/JFH-1 HCV is on record as “demonstrated efficacy”. In addition, the “inhibition of J6/JFH-1 HCV replication” value in the series with J6/JFH-1 HCV (genotype G2a) is “shown to inhibit J6/JFH-1HCV replication”. In addition, in the series with J6/JFH-1 HCV (genotype G2a, at 0.1 μM), the “relative potency, % of NTZ” value is reported as 88 % of NTZ. Besides, the “relative activity, % of NTZ” value in the series on J6/JFH-1 HCV (genotype G2a, at 1 μM) is given as 95 % of NTZ.

`CC(=O)Oc1ccccc1C(=O)Nc1ncc(S(C)(=O)=O)s1` [RM4864]: in [1] (setting [11]), the EC50 is over 10 µM. Besides, the EC90 in series [1] (setting [12]) was over 10 µM. Also, the CC50 in series [4] amounted to 20 µM. Further, the “metabolic stability (hydrolysis to the parent phenolic drug)” value with cellular esterases is on record as “metabolically stable”.

Turning to `CC(=O)Oc1ccccc1C(=O)Nc1ncc([N+](=O)[O-])s1` [NTZ, Nitazoxanide], the values for the CC50 in series [3], in [4] and in series [6] were 49 µM, 31 µM and 35 µM, respectively. Also, the half-maximal effective concentration (EC50) is 0.21 µM in series [1] (setting [13]); 0.25 µM in [5] (Hepatitis C virus, Ava5); 0.33 µM in series [7] (Hepatitis C virus). Besides, the EC90 is 0.98 µM in [1] (setting [14]); 0.95 µM in [5] (Hepatitis C virus, Ava5); 1.1 µM in [7] (Hepatitis C virus). For the same compound, the detection in plasma result in series [10] (after oral 500 mg NTZ tablet) was “not detected”. Also, the “cytotoxic effect in Huh 7.5 cells” value in the series with Huh 7.5 cells is on record as “without being cytotoxic; also recorded: Neither of these compounds showed a cytotoxic effect”. For the same compound, in the series on J6/JFH-1 HCV, the “efficacy with regards to HCV replication” value is “demonstrated efficacy”. Besides, in the series on J6/JFH-1 HCV (genotype G2a), the “inhibition of J6/JFH-1 HCV replication” value is given as “shown to inhibit J6/JFH-1HCV replication”.

As for `O=C(Nc1ncc([N+](=O)[O-])s1)c1ccccc1O` [TIZ, Tizoxanide], the half-maximal cytotoxic concentration (CC50) is 27 µM in [3], 15 µM in series [4] and 28 µM in [6]. For the same compound, the EC50 in [1] (setting [13]) is 0.15 µM; in series [5] (Hepatitis C virus, Ava5) it was 0.19 µM; in series [7] (Hepatitis C virus), 0.23 µM. For the same compound, the EC90 was found to be 0.81 µM in series [1] (setting [14]); 0.92 µM in series [5] (Hepatitis C virus, Ava5); 1 µM in series [7] (Hepatitis C virus). In addition, in [10] (oral dose of NTZ, feces), the “part of an oral dose excreted in feces as TIZ” value is “Approximately two-thirds”. Further, in [10] (oral, one 500 mg NTZ tablet (Alinia) with food), the “Maximum serum concentrations of TIZ” value is “approximately 10 μg/mL and ~37 μM”. In series [10] (plasma), the “elimination half-life of TIZ from plasma” value was “approximately 1.5 hours”. In addition, the “inhibition of cytochrome P450 enzymes” value with cytochrome P450 enzymes was “does not inhibit”.

A word on the EC50: it is the concentration needed to bring the measured effect to its halfway point. A word on the EC90: it is the concentration needed for an effect of 90%. A word on the CC50: it is the concentration that lowers cell viability or growth by half. A lower CC50 goes with harm at low concentration.
